Measured values as given in patent publication US20200024278A1, “COMPOSITION COMPRISING ANTIBIOTIC COMPOUND AND AN HETEROCYCLIC COMPOUND AND THEIR USE IN PREVENTING OR TREATING BACTERIAL INFECTIONS” (MUTABILIS, priority 2016, published 2020).
Where two headings read alike, the source gives them in different places.

Tests used:
Assay in all cases: MIC, broth microdilution (CLSI), substance alone or ATB combined with compound at 4 or 8 μg/mL
ECO 190317 = format: cell-based, E. coli; conditions: ECO 190317; for MIC: Escherichia coli
How it was run: (§1)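 Antibiotic MICs were determined in presence of fixed compound at 4 or 8 μg/mL, and compound MICs alone, by visual growth inhibition. Inoculum 5·10^5 CFU/mL in ca-MHB, incubated 35 °C for 16-20 h per CLSI-M7-A7. Glucose-6-phosphate (25 μg/ml) added when fosfomycin was tested.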

ECO UFR39 = format: cell-based, E. coli; conditions: for MIC: Escherichia coli
How it was run: as §1

KPN 6299 = format: cell-based, K. pneumoniae; conditions: for MIC: Klebsiella pneumoniae
How it was run: as §1

KPN BAA-1898 = format: cell-based, K. pneumoniae; conditions: KPN BAA-1898; for MIC: Klebsiella pneumoniae, BAA1898
How it was run: as §1

KPN UFR42 = format: cell-based, K. pneumoniae; conditions: for MIC: Klebsiella pneumoniae
How it was run: as §1

ECL P99 = format: cell-based, E. cloacae; conditions: ECL P99
How it was run: as §1

[1] = antibiotic alone, read-out: MIC ATB alone

CO/N=C(\C(=O)N[C@@H]1C(=O)N2C(C(=O)O)=C(COC(N)=O)CS[C@H]12)c1ccco1 [FUR, Cefuroxime, reference compound]
MIC ATB combined with Example 1 @8 μg/ml (ECO 190317; with Example 1 @8 μg/ml): <0.031 µg/mL
MIC ATB combined with Example 1 @8 μg/ml (ECO 190317; with Example 1 at 8 μg/ml): <0.031 µg/mL
MIC ATB combined with Example 7 @8 μgml (ECO 190317; with Example 7 at 8 μg/ml): <0.031 µg/mL
MIC ATB combined with Example 9 @4 μg/ml (ECO 190317; with Example 9 @4 μg/ml): <0.031 µg/mL
MIC ATB combined with Example 9 @4 μg/ml (ECO 190317; with Example 9 at 4 μg/ml): <0.031 µg/mL
MIC ATB combined with Example 11 @8 μg/ml (ECO 190317; with Example 11 at 8 μg/ml): <0.031 µg/mL
MIC ATB combined with Example 12 @8 μg/ml (ECO 190317; with Example 12 at 8 μg/ml): <0.031 µg/mL
MIC ATB combined with Example 13 @8 μg/ml (ECO 190317; with Example 13 at 8 μg/ml): <0.031 µg/mL
MIC ATB combined with Example 14 @8 μg/ml (ECO 190317; with Example 14 at 8 μg/ml): <0.031 µg/mL
MIC ATB combined with Example 15 @4 μgml (ECO 190317; with Example 15 at 4 μg/ml): <0.031 µg/mL
MIC ATB combined with Example 16 @4 μg/ml (ECO 190317; with Example 16 at 4 μg/ml): <0.031 µg/mL
MIC (ECO 190317; [1]): > 512 µg/mL
MIC (ECO 190317; substance alone, read-out: MIC): > 512 µg/mL
MIC ATB combined with Example 1 @8 μg/ml (ECO UFR39; ECO UFR39, with Example 1 @8 μg/ml): >32 µg/mL
MIC ATB combined with Example 1 @8 μg/ml (ECO UFR39; ECO UFR39, with Example 1 at 8 μg/ml): >32 µg/mL
MIC ATB combined with Example 7 @8 μgml (ECO UFR39; ECO UFR39, with Example 7 at 8 μg/ml): <0.031 µg/mL
MIC ATB combined with Example 9 @4 μg/ml (ECO UFR39; ECO UFR39, with Example 9 @4 μg/ml): <0.031 µg/mL
MIC ATB combined with Example 9 @4 μg/ml (ECO UFR39; ECO UFR39, with Example 9 at 4 μg/ml): <0.031 µg/mL
MIC ATB combined with Example 11 @8 μg/ml (ECO UFR39; ECO UFR39, with Example 11 at 8 μg/ml): <0.031 µg/mL
MIC ATB combined with Example 12 @8 μg/ml (ECO UFR39; ECO UFR39, with Example 12 at 8 μg/ml): <0.031 µg/mL
MIC ATB combined with Example 13 @8 μg/ml (ECO UFR39; ECO UFR39, with Example 13 at 8 μg/ml): <0.031 µg/mL
MIC ATB combined with Example 14 @8 μg/ml (ECO UFR39; ECO UFR39, with Example 14 at 8 μg/ml): <0.031 µg/mL
MIC ATB combined with Example 15 @4 μgml (ECO UFR39; ECO UFR39, with Example 15 at 4 μg/ml): <0.031 µg/mL
MIC ATB combined with Example 16 @4 μg/ml (ECO UFR39; ECO UFR39, with Example 16 at 4 μg/ml): <0.031 µg/mL
MIC (ECO UFR39): > 256 µg/mL
MIC (ECO UFR39; ECO UFR39, antibiotic alone, read-out: MIC ATB alone): > 32 µg/mL
MIC (KPN 6299; [1]): > 512 µg/mL
MIC (KPN 6299; substance alone, read-out: MIC): > 512 µg/mL
MIC ATB combined with Example 1 @8 μg/ml (KPN 6299; with Example 1 @8 μg/ml): 8 µg/mL
MIC ATB combined with Example 1 @8 μg/ml (KPN 6299; with Example 1 at 8 μg/ml): 8 µg/mL
MIC ATB combined with Example 7 @8 μgml (KPN 6299; with Example 7 at 8 μg/ml): 2 µg/mL
MIC ATB combined with Example 9 @4 μg/ml (KPN 6299; with Example 9 @4 μg/ml): <0.031 µg/mL
MIC ATB combined with Example 9 @4 μg/ml (KPN 6299; with Example 9 at 4 μg/ml): <0.031 µg/mL
MIC ATB combined with Example 11 @8 μg/ml (KPN 6299; with Example 11 at 8 μg/ml): <0.031 µg/mL
MIC ATB combined with Example 12 @8 μg/ml (KPN 6299; with Example 12 at 8 μg/ml): <0.031 µg/mL
MIC ATB combined with Example 13 @8 μg/ml (KPN 6299; with Example 13 at 8 μg/ml): 2 µg/mL
MIC ATB combined with Example 14 @8 μg/ml (KPN 6299; with Example 14 at 8 μg/ml): <0.031 µg/mL
MIC ATB combined with Example 15 @4 μgml (KPN 6299; with Example 15 at 4 μg/ml): <0.031 µg/mL
MIC ATB combined with Example 16 @4 μg/ml (KPN 6299; with Example 16 at 4 μg/ml): <0.031 µg/mL
MIC ATB combined with Example 1 @8 μg/ml (KPN BAA-1898; with Example 1 @8 μg/ml): 2 µg/mL
MIC ATB combined with Example 1 @8 μg/ml (KPN BAA-1898; with Example 1 at 8 μg/ml): 2 µg/mL
MIC ATB combined with Example 7 @8 μgml (KPN BAA-1898; with Example 7 at 8 μg/ml): 8 µg/mL
MIC ATB combined with Example 9 @4 μg/ml (KPN BAA-1898; with Example 9 @4 μg/ml): <0.031 µg/mL
MIC ATB combined with Example 9 @4 μg/ml (KPN BAA-1898; with Example 9 at 4 μg/ml): <0.031 µg/mL
MIC ATB combined with Example 11 @8 μg/ml (KPN BAA-1898; with Example 11 at 8 μg/ml): <0.031 µg/mL
MIC ATB combined with Example 12 @8 μg/ml (KPN BAA-1898; with Example 12 at 8 μg/ml): <0.031 µg/mL
MIC ATB combined with Example 13 @8 μg/ml (KPN BAA-1898; with Example 13 at 8 μg/ml): 8 µg/mL
MIC ATB combined with Example 14 @8 μg/ml (KPN BAA-1898; with Example 14 at 8 μg/ml): <0.031 µg/mL
MIC ATB combined with Example 15 @4 μgml (KPN BAA-1898; with Example 15 at 4 μg/ml): <0.031 µg/mL
MIC ATB combined with Example 16 @4 μg/ml (KPN BAA-1898; with Example 16 at 4 μg/ml): <0.031 µg/mL
MIC (KPN BAA-1898; [1]): > 512 µg/mL
MIC (KPN BAA-1898; substance alone, read-out: MIC): > 512 µg/mL
MIC ATB combined with Example 1 @8 μg/ml (KPN UFR42; KPN UFR42, with Example 1 @8 μg/ml): >32 µg/mL
MIC ATB combined with Example 1 @8 μg/ml (KPN UFR42; KPN UFR42, with Example 1 at 8 μg/ml): >32 µg/mL
MIC ATB combined with Example 7 @8 μgml (KPN UFR42; KPN UFR42, with Example 7 at 8 μg/ml): >32 µg/mL
MIC ATB combined with Example 9 @4 μg/ml (KPN UFR42; KPN UFR42, with Example 9 @4 μg/ml): >32 µg/mL
MIC ATB combined with Example 9 @4 μg/ml (KPN UFR42; KPN UFR42, with Example 9 at 4 μg/ml): >32 µg/mL
MIC ATB combined with Example 11 @8 μg/ml (KPN UFR42; KPN UFR42, with Example 11 at 8 μg/ml): <0.031 µg/mL
MIC ATB combined with Example 12 @8 μg/ml (KPN UFR42; KPN UFR42, with Example 12 at 8 μg/ml): <0.031 µg/mL
MIC ATB combined with Example 13 @8 μg/ml (KPN UFR42; KPN UFR42, with Example 13 at 8 μg/ml): >32 µg/mL
MIC ATB combined with Example 14 @8 μg/ml (KPN UFR42; KPN UFR42, with Example 14 at 8 μg/ml): <0.031 µg/mL
MIC ATB combined with Example 15 @4 μgml (KPN UFR42; KPN UFR42, with Example 15 at 4 μg/ml): <0.031 µg/mL
MIC ATB combined with Example 16 @4 μg/ml (KPN UFR42; KPN UFR42, with Example 16 at 4 μg/ml): <0.031 µg/mL
MIC (KPN UFR42): > 256 µg/mL
MIC (KPN UFR42; KPN UFR42, antibiotic alone, read-out: MIC ATB alone): > 32 µg/mL
MIC ATB combined with Example 1 @8 μg/ml (ECL P99; with Example 1 @8 μg/ml): <=0.031 μg/mL
MIC ATB combined with Example 1 @8 μg/ml (ECL P99; with Example 1 at 8 μg/ml): <=0.031 μg/mL
MIC ATB combined with Example 7 @8 μgml (ECL P99; with Example 7 at 8 μg/ml): >32 µg/mL
MIC ATB combined with Example 9 @4 μg/ml (ECL P99; with Example 9 @4 μg/ml): <0.031 µg/mL
